Measurements from patent US11384078B2, “5,6-fused-bicyclic compounds and compositions for the treatment of parasitic diseases” (NOVARTIS AG, priority 2017, dated 2022).
Where two headings read alike, the source gives them in different places.

Assays:
Type in all cases: cell-based
[1] = test system: L. donovani HU3 strain in mouse peritoneal macrophages; assay: Assay for inhibition of parasitemia of Leishmania donovani in mouse macrophages (SYBR Green nuclei count, high-content imaging); details: Leishmania donovani, Peritoneal macrophage, read-out: L. donovani in Mouse Macrophages EC50
Text: Assay for Inhibition of Parasitemia of Leishmania donovani in Mouse Macrophages
The assay measures the increase in the parasite number in the assayed plate well using a DNA intercalating dye, SYBR Green I® dye (INVITROGEN) to stain Leishmania cell nuclei. L. donovani HU3 strain is propagated by infecting BALB/c mice through tail vein injection with 10^7 Leishmania parasites. Infected mice are allowed to develop infection during 9-11 weeks post-infection. During this time, the parasites accumulate in the infected mouse spleens to large numbers, and the infected mice serve as the source of parasites for the in vitro measurement of compound efficacies. To assay a compound for anti-leishmanial activity, peritoneal macrophages isolated from non-infected BALB/c mice are seeded into 384-well plates at density 2×10^4 macrophages per well in […] of medium (RPM11640, 10% fetal serum albumin, 10 mM HEPES, 1 mM sodium pyruvate, 1% Pen/Strep). Subsequently, the seeded plates are placed into an incubator set to maintain 37° C. temperature and atmosphere with 5% CO2.
The next day, Leishmania parasites are isolated from the spleens of mice infected for 9-11 weeks and 4×10^5 isolated parasites in […] of the above media are added to each plate well. Plates are then returned into incubators and infection is allowed to proceed for 24 hours. After the infection of macrophages is completed, […] of compounds of the invention in the above medium, which also contains 5% DMSO, are added to plate wells containing infected macrophages. At the same time control compounds (miltefosine and amphotericin B) and DMSO are added to plates to serve as the positive and negative controls, respectively. After the compound addition, the plates are returned into incubator and cells infected with parasites are cultured for 5 days. At the end of cultivation, […] of 8% paraformaldehyde is added to plate wells and incubated for 15 min at room temperature. Following the incubation, the paraformaldehyde from plate wells is aspirated, and […] of PBS containing 0.2% Triton X-100 is added to wells. After 15 min incubation, the solution is aspirated from wells again, and replaced with Sybr® Green Dye solution in PBS (1:125,000 dilution). Infected cells are imaged with Evotec Opera high-content microscope, and the number of parasites in well is determined by counting parasite nuclei visualized by staining with Sybr® Green dye.

[2] = test system: Leishmania donovani axenic amastigote; assay: In vitro assay for growth inhibition of Leishmania donovani axenic amastigote (Cell TiterGlo luminescence); details: Leishmania donovani, L. donovani axenic amastigotes in vitro; read-out: L. donovani amastigotes EC50
In short: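 Compound-treated wells received 9600 axenic amastigotes in RPMI 1640-based medium at pH 5.5 (37 °C, 5% CO2). Growth measured as ATP luminescence (CellTiter-Glo) after 2-day incubation; DMSO and reference compounds served as controls.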

[3] = test system: Trypanosoma brucei brucei (Lister 427) strain; assay: Assay for growth inhibition against Trypanosoma brucei brucei (Cell TiterGlo ATP luminescence); details: Trypanosoma brucei, T. brucei brucei (Lister 427); read-out: T. Brucei (HAT) EC50
In short: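 Growth read-out is cellular ATP by CellTiter-Glo luminescence, measured 30 min after reagent addition, following 2-day incubation at 37 °C in CO2. Parasites (10,000/mL, HMI-9 plus 10% FBS and 10% serum plus) faced 10 threefold dilutions in duplicate; IC50 taken as 50% growth inhibition versus untreated.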

[4] = test system: Trypanosoma cruzi amastigotes cultured in 3T3 fibroblast cells; assay: Assay for growth inhibition of kinetoplastid parasite Trypanosoma cruzi (beta-galactosidase Tulahuen strain, CPRG readout); details: Trypanosoma cruzi, Fibroblast, T. cruzi amastigotes in 3T3 fibroblast cells; read-out: Buckner infectious T. cruzi EC50
In short: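 3T3 fibroblasts (1,000 cells/well) plated overnight, treated with compound in DMSO, then infected with 10,000 Lac-Z-expressing Tulahuen trypomastigotes. After 6 days, 0.6 mM CPRG with 0.6% NP-40 added for 2 h at room temperature; absorbance gives relative intracellular amastigote numbers. Benznidazole and nifurtimox serve as positive controls.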

[5] = L. donovani in mouse peritoneal macrophages

Compound	EC50 [1, 5] [nM]	EC50 [2] [nM]	EC50 [3] [nM]	EC50 [4] [nM]	EC50 [1] [nM]
Cc1nc(C)c(C(=O)Nc2ccc(F)c(-n3cc4cc(-c5ccccn5)cnc4n3)c2)o1 [Compound 108, N-{4-fluoro-3-[5-(pyridin-2-yl)-2H-pyrazolo[3,4-b]pyridin-2-yl]phenyl}-2,4-dimethyl-1,3-oxazole-5-carboxamide]	4	3.3	< 23	3.8	
O=C(Nc1ccc(F)c(-n2cc3cc(C4CC4)cnc3n2)c1)N1CC(F)C1 [Compound 15, N-(3-{5-cyclopropyl-2H-pyrazolo[3,4-b]pyridin-2-yl}-4-fluorophenyl)-3-fluoroazetidine-1-carboxamide]	17	13	< 23	5	
O=C(Nc1ccc(F)c(-n2cc3cc(N4CCNCC4)cnc3n2)c1)N1CC(F)C1 [Compound 270, 3-fluoro-N-{4-fluoro-3-[5-(piperazin-1-yl)-2H-pyrazolo[3,4-b]pyridin-2-yl]phenyl}azetidine-1-carboxamide]	2170	233	79	1700	
O=C(Nc1ccc(F)c(-n2cc3cc(C4CC4)cnc3n2)c1)c1ccco1 [Compound 55, N-(3-{5-cyclopropyl-2H-pyrazolo[3,4-b]pyridin-2-yl}-4-fluorophenyl)furan-2-carboxamide]	35	57		6.3	
O=C(Nc1ccc(F)c(-n2cc3cc(N4CC(F)(F)C4)cnc3n2)c1)C1CC1 [Compound 326, N-{3-[5-(3,3-difluoroazetidin-1-yl)-2H-pyrazolo[3,4-b]pyridin-2-yl]-4-fluorophenyl}cyclopropanecarboxamide]	761	189	236	119	
Cc1nc(C)c(C(=O)Nc2ccc(F)c(-n3cc4cc(CC5CCC5)cnc4n3)c2)o1 [Compound 106, N-{3-[5-(cyclobutylmethyl)-2H-pyrazolo[3,4-b]pyridin-2-yl]-4-fluorophenyl}-2,4-dimethyl-1,3-oxazole-5-carboxamide]	85	130	> 50000	61	
CC(C)CCc1cnc2nn(-c3cc(NC(=O)N4CC(F)C4)ccc3F)cc2c1 [Compound 27, 3-fluoro-N-{4-fluoro-3-[5-(3-methylbutyl)-2H-pyrazolo[3,4-b]pyridin-2-yl]phenyl}azetidine-1-carboxamide]	15	33	< 23	38	
O=C(Nc1ccc(F)c(-n2cc3cc(-c4ccccn4)cnc3n2)c1)C1CC12CC2 (centres unmarked) [Compound 346, N-{4-fluoro-3-[5-(pyridin-2-yl)-2H-pyrazolo[3,4-b]pyridin-2-yl]phenyl}spiro[2.2]pentane-1-carboxamide]	155	239	41	34	
O=C(Nc1ccc(F)c(-n2cc3cc(-c4ncccc4Cl)cnc3n2)c1)N1CC[C@@H](F)C1 [Compound 316, (3R)-N-{3-[5-(3-chloropyridin-2-yl)-2H-pyrazolo[3,4-b]pyridin-2-yl]-4-fluorophenyl}-3-fluoropyrrolidine-1-carboxamide]	2	2	5	1	
O=C(Nc1ccc(F)c(-n2cc3cc(N4CCC4)cnc3n2)c1)N1CC(F)C1 [Compound 147, N-{3-[5-(azetidin-1-yl)-2H-pyrazolo[3,4-b]pyridin-2-yl]-4-fluorophenyl}-3-fluoroazetidine-1-carboxamide]	26	6.1	< 23	4.8	
CCC(C)c1cnc2nn(-c3cc(NC(=O)c4oc(C)nc4C)ccc3F)cc2c1 (centres unmarked) [Compound 105, N-{3-[5-(butan-2-yl)-2H-pyrazolo[3,4-b]pyridin-2-yl]-4-fluorophenyl}-2,4-dimethyl-1,3-oxazole-5-carboxamide]	890	720	380	430	
O=C(Nc1ccc(F)c(-n2cc3cc(CC(F)(F)F)cnc3n2)c1)c1ccco1 [Compound 176, N-{4-fluoro-3-[5-(2,2,2-trifluoroethyl)-2H-pyrazolo[3,4-b]pyridin-2-yl]phenyl}furan-2-carboxamide]	69	71		9.5	
O=C(Nc1ccc(F)c(-n2cc3cc(C4CCCC4)cnc3n2)c1)c1ccco1 [Compound 56, N-(3-{5-cyclopentyl-2H-pyrazolo[3,4-b]pyridin-2-yl}-4-fluorophenyl)furan-2-carboxamide]	550	240			
[2H]C([2H])([2H])N(c1cnc2nn(-c3cc(NC(=O)N4CC(F)C4)ccc3F)cc2c1)C([2H])([2H])[2H] [Compound 314, N-(3-[5-[bis(^2H3)methylamino]-2H-pyrazolo[3,4-b]pyridin-2-yl]-4-fluorophenyl)-3-fluoroazetidine-1-carboxamide]	6	242		5	
CC(C)CCc1cnc2nn(-c3cc(NC(=O)c4ccco4)ccc3F)cc2c1 [Compound 63, N-{4-fluoro-3-[5-(3-methylbutyl)-2H-pyrazolo[3,4-b]pyridin-2-yl]phenyl}furan-2-carboxamide]	90	89		14	
CCC(C)c1cnc2nn(-c3cc(NC(=O)N4CC(F)(F)C4)ccc3F)cc2c1 (centres unmarked) [Compound 36, N-{3-[5-(butan-2-yl)-2H-pyrazolo[3,4-b]pyridin-2-yl]-4-fluorophenyl}-3,3-difluoroazetidine-1-carboxamide]	250	210			
CC(C)(C)c1cnc2nn(-c3cc(NC(=O)N4CC[C@@H](F)C4)ccc3F)cc2c1 [Compound 47, (3R)-N-(3-{5-tert-butyl-2H-pyrazolo[3,4-b]pyridin-2-yl}-4-fluorophenyl)-3-fluoropyrrolidine-1-carboxamide]	27	23		2.8	
O=C(Nc1ccc(F)c(-n2cc3cc(C4CCCCC4)cnc3n2)c1)N1CC[C@@H](F)C1 [Compound 44, (3R)-N-(3-{5-cyclohexyl-2H-pyrazolo[3,4-b]pyridin-2-yl}-4-fluorophenyl)-3-fluoropyrrolidine-1-carboxamide]	32	29		22	
O=C(Nc1ccc(F)c(-n2cc3cc(-c4ccccc4)cnc3n2)c1)N1CC(F)(F)C1 [Compound 353, 3,3-difluoro-N-(4-fluoro-3-(5-phenyl-2H-pyrazolo[3,4-b]pyridin-2-yl)phenyl)azetidine-1-carboxamide]		5	13		4
O=C(Nc1ccc(F)c(-n2cc3cc(N4CC5(CC5)C4)cnc3n2)c1)N1CCCC1 [Compound 337, N-[3-(5-{5-azaspiro[2.3]hexan-5-yl}-2H-pyrazolo[3,4-b]pyridin-2-yl)-4-fluorophenyl]pyrrolidine-1-carboxamide]	13		7	4	
Cc1nc(C)c(C(=O)Nc2ccc(F)c(-n3cc4cc(-c5ccccc5)cnc4n3)c2)o1 [Compound 352, N-(4-fluoro-3-(5-phenyl-2H-pyrazolo[3,4-b]pyridin-2-yl)phenyl)-2,4-dimethyloxazole-5-carboxamide]	31	17	39		
CN(C)C(=O)Nc1ccc(F)c(-n2cc3cc(N(C)C)cnc3n2)c1 [Compound 143, 1-{3-[5-(dimethylamino)-2H-pyrazolo[3,4-b]pyridin-2-yl]-4-fluorophenyl}-3,3-dimethylurea]	110	150	< 23		
